Measured values as given in patent US20240287489A1, “CHITINOLYTIC ENZYME-BASED PLANT PROTECTION AGENTS” (GLOBACHEM NV, priority 2021, published 2024).

What was measured:
Assay in all cases: Effect of metallic ions and chemical compounds on chitinase activity
Assay type in all cases: biochemical, P. orarium
Settings in all cases: relative to standard MAT buffer control (100%); ions and EDTA 1 mM, Tween 20 0.5% v/v, SDS 0.5% w/v; 2 μM enzyme
recombinant chitinase C1 = system: recombinant chitinase C1
Description: (§1) The addition of different co-factors and chemicals was assessed to determine whether they stimulate or inhibit enzymatic activity and the effect was evaluated relative to the control in standard MAT buffer (33 mM 2-(N-morpholino) ethanesulfonic acid (MES), 33 mM sodium acetate, 33 mM Tris(hydroxymethyl) aminomethane (TRIS); pH 8.0). The selection of tested compounds at the respective concentrations was based on findings for different chitinases so far [Zarei et al., J. Microbiol., 2011. 42: p. 1017-1029.]. […] All enzymes were inhibited the strongest by Zn2+ and Cu2+ and SDS (0.5% w/v) resulting in a relative loss of activity of up to 99%. […] Inhibitory effects of Ni2+ and imidazole on enzymatic activity also underline the requirement for dialysis of the elution fractions after purification in order to remove residual Ni2+ and imidazole from the elution buffer.
(§2) Enzyme samples were incubated at different temperature (10-60° C., 10° C. increment) and pH (4-11, increment 1) using different buffer systems (Acetate, Tris-HCl, MES, total molar concentration 100 mM), as well as NaCl content (0, 1. 2.5, 5, 10 and 20% w/v) to determine optimum reaction conditions. All experiments were carried out at 1.0 ml scale using 2 μM of the respective enzymes and a 5% (wv) suspension of chitin powder extracted from shrimp shells (˜400.000 g/mol; Carl, Roth) in 100 mM MAT buffer. For the determination of the substrate specificity, chitin powder (5% w/v), glycol chitin (10% v/v), colloidal chitin (5% w/v), chitosan [DA 15-25%, medium molecular weight, Sigma-Aldrich] (5% w/v) and microcrystalline cellulose powder (Sigma Aldrich) (5% w/v) were investigated, respectively. The effect of several potential co-factors on activity was elucidated at a concentration of 1 mM. Additionally, the effect of detergents [SDS 0.5% (w/v), Tween-20 and Triton X-100 both at 0.5% (v/v)] and chemicals (Imidazole 100 mM, EDTA 1 mM) on enzymatic activity was assessed. Samples were incubated in a thermomixer for 16 h at 900 rpm. After incubation, samples were analyzed using the enzyme assay. Thermostability was assessed after incubation of recombinant chitinases at 60° C. for different durations followed by the quantification of residual enzyme activity under standard assay conditions.

recombinant chitinase C2 = system: recombinant chitinase C2
Description: as §1, §2

recombinant chitinase C3 = system: recombinant chitinase C3
Description: as §1, §2

recombinant chitinase C4 = system: recombinant chitinase C4
Description: as §1, §2

recombinant chitinase C5 = system: recombinant chitinase C5
Description: as §1, §2

[Ca+2] [Ca^2+]
[%] Residual activity C1 (recombinant chitinase C1): 92.7 ± 2.1% | [%] Residual activity C2 (recombinant chitinase C2): 35.6 ± 1.7% | [%] Residual activity C3 (recombinant chitinase C3): 94.7 ± 2.0% | [%] Residual activity C4 (recombinant chitinase C4): 3.8 ± 0.4% | [%] Residual activity C5 (recombinant chitinase C5): 21.3 ± 0.1%

[Cu+2] [Cu^2+]
[%] Residual activity C1 (recombinant chitinase C1): 11.1 ± 3.7% | [%] Residual activity C2 (recombinant chitinase C2): 12.3 ± 0.9% | [%] Residual activity C3 (recombinant chitinase C3): 16.9 ± 0.2% | [%] Residual activity C4 (recombinant chitinase C4): 14.8 ± 3.4% | [%] Residual activity C5 (recombinant chitinase C5): 3.9 ± 2.9%

O=C(O)CN(CCN(CC(=O)O)CC(=O)O)CC(=O)O [EDTA]
[%] Residual activity C1 (recombinant chitinase C1): 68.9 ± 0.7% | [%] Residual activity C2 (recombinant chitinase C2): 20.4 ± 1.6% | [%] Residual activity C3 (recombinant chitinase C3): 80.8 ± 4.8% | [%] Residual activity C4 (recombinant chitinase C4): 73.9 ± 4.1% | [%] Residual activity C5 (recombinant chitinase C5): 28.0 ± 0.9%

[K+] [K^2+]
[%] Residual activity C1 (recombinant chitinase C1): 100.1 ± 2.8% | [%] Residual activity C2 (recombinant chitinase C2): 44.8 ± 2.3% | [%] Residual activity C3 (recombinant chitinase C3): 72.6 ± 1.7% | [%] Residual activity C4 (recombinant chitinase C4): 3.7 ± 0.2% | [%] Residual activity C5 (recombinant chitinase C5): 28.6 ± 0.4%

[Mg+2] [Mg^2+]
[%] Residual activity C1 (recombinant chitinase C1): 99.8 ± 3.1% | [%] Residual activity C2 (recombinant chitinase C2): 38.7 ± 1.7% | [%] Residual activity C3 (recombinant chitinase C3): 68.8 ± 2.8% | [%] Residual activity C4 (recombinant chitinase C4): 3.3 ± 0.2% | [%] Residual activity C5 (recombinant chitinase C5): 25.8 ± 0.9%

[Ni+2] [Ni^2+]
[%] Residual activity C1 (recombinant chitinase C1): 76.6 ± 5.1% | [%] Residual activity C2 (recombinant chitinase C2): 23.0 ± 0.7% | [%] Residual activity C3 (recombinant chitinase C3): 64.8 ± 1.2% | [%] Residual activity C4 (recombinant chitinase C4): 38.8 ± 1.7% | [%] Residual activity C5 (recombinant chitinase C5): 5.6 ± 0.3%

CCCCCCCCCCCCOS(=O)(=O)[O-].[Na+] [SDS, sodium dodecyl sulfate]
[%] Residual activity C1 (recombinant chitinase C1): 1.5 ± 0.2% | [%] Residual activity C2 (recombinant chitinase C2): 21.6 ± 1.0% | [%] Residual activity C3 (recombinant chitinase C3): 2.4 ± 1.9% | [%] Residual activity C4 (recombinant chitinase C4): 33.2 ± 3.4% | [%] Residual activity C5 (recombinant chitinase C5): 19.9 ± 0.3%

[Zn+2] [Zn^2+]
[%] Residual activity C1 (recombinant chitinase C1): 30.5 ± 0.3% | [%] Residual activity C2 (recombinant chitinase C2): 2.3 ± 0.4% | [%] Residual activity C3 (recombinant chitinase C3): 21.7 ± 0.1% | [%] Residual activity C4 (recombinant chitinase C4): 8.1 ± 0.7% | [%] Residual activity C5 (recombinant chitinase C5): 0.6 ± 0.5%
